Laboratory results published in publication PMC10059083, “Design, Synthesis, and Biological Evaluation of Novel Hydroxamic Acid-Based Organoselenium Hybrids” (Pharmaceuticals, 2023).

Tests used:
C. albicans = test: Agar diffusion assay, C. albicans; type: cell-based, Candida albicans
S. aureus = test: Agar diffusion assay, S. aureus; type: cell-based; conditions: Staphylococcus aureus; 6-mm disks soaked with 20 μM of the OSe agents; read-out: S. aureus ZID (inhibition zone diameter)

SMILES: Nc1ccc([Se]CC(=O)NOCc2ccccc2)cc1 [Compound 8, 2-((4-Aminophenyl)selanyl)-N-(benzyloxy)acetamide]
- zone of inhibition at 20 µM (C. albicans; Candida albicans, read-out: C. albicans ZID (inhibition zone diameter)): 22 mm
- C. albicans IA% (activity index) (C. albicans; ratio of inhibition zone of compound to that of positive control (clotrimazole)): 91.7%
- zone of inhibition at 20 µM (S. aureus): 19 mm
